We go through twelve compounds from patent US20110257225A1, “CYCLOHEXYLAMINE DERIVATIVE CONTAINING PHENYL GROUP, AND THERAPEUTIC AGENT FOR DISEASES ACCOMPANIED BY CENTRAL NERVOUS SYSTEM DISORDERS” (M'S Science Corporation, priority 2008, published 2011).

Assay [1] has as its system rat cerebral cortex neural cells. The assay is described as follows: Evaluation of neurite outgrowth-promoting activity in central neural cells. It is filed as cell-based. The settings on record: 48 hours after addition, mean±standard error, control 18.0 ± 1.6. Here is the method:
The neurite outgrowth-promoting effects of the rat cerebral cortex neural cells on test substances were evaluated by the following method. The cerebral cortex neural cells were isolated from Wistar rats on the 18th day of pregnancy according to the method of Springer Neuroscience Lab Manual. That is to say, under ether anesthesia, a fetal rat was removed from the uterus of a pregnant rat on day 18, and transferred into a petri dish containing HBSS (manufactured by Gibco, Inc.) on ice. The cerebral cortex was cut out under a stereoscopic microscope. The cerebral cortex that had been cut out was dispersed with a neural cells dispersion solution (manufactured by Sumitomo Bakelite Co., Ltd.) to prepare rat cerebral cortex cells.
The resulting cerebral cortex cells were subjected to cell culture. Neurobasal medium (manufactured by Gibco, Inc.) supplemented with B27 Supplement (manufactured by Gibco, Inc.; Fin. 2% v/v), L-glutamine (manufactured by IBCO company; Fin. 0.5 mM) and GlutaMax I (manufactured by Gibco, Inc.; Fin. 0.5 mM) was used as the culture medium. The culture conditions were as follows: 5% CO2, 95% air, 100% humidity, and 37° C. The cells were inoculated to polylysine-coated 8-well slides (manufactured by IWAKI company) so as to have about 2×10^4 cells/well.
Compound [2], compound [3], compound [4], compound [5], compound [6], compound [7], compound [8], compound [9], compound [10], compound [11], and compound [12] (final•concentrations: 0.3 μM and 1.0 μM) were added as respective test substances to the culture solution at about 3 hours after the cell inoculation, and the culture solution with no additives was used as a control.
At 48 hours after the addition of the compounds, the cells were fixed by treatment with 4% paraformaldehyde (manufactured by Wako Pure Chemical Industries) at room temperature for about 30 minutes, and incubated with an anti-α-Tublin antibody (Anti-α-Tubulin Alexa Fluor 488 conjugate) recognizing a microtubule protein, at room temperature for one hour. After washing, the nucleus of the whole cell was stained with a nucleic acid-staining agent DAPI. The cells were observed under a fluorescence microscope at a magnification of 20 times. The stained cell image and the nuclear staining image in the same field of vision were imported into a computer as the image. Using an image analysis software (MethaMorph (registered trademark), Molecular Devises), the image imported into the computer was used to measure the “longest neurite length” that was the length of the longest neurite of individual cell in each field of vision. A cell having a length of the “longest neurite length” of 60 μm or more was defined as a “neurite forming cell” and the neurite forming activity was evaluated by the ratio of the “neurite forming cell” occupied in the number of the cells in the same field of vision. In other words, evaluation was performed by determining the rate of the neurite forming cells using the following equation:
Rate of neurite forming cells=[Number of neurite forming cells/Number of total cells in the same field of vision]×100

Assay [2] shares this test system. Described as above. The format is cell-based. The settings on record: cultured for 48 hours.
The next assay concerns the target T1, sigma receptor (Cavia porcellus, UniProt Q60492).
T1 construct: A membrane preparation as a sigma receptor obtained from the whole brain of guinea pigs; from tissue; host or cells: guinea pig whole brain membrane preparation
The assay can be described thus: Evaluation of affinity to sigma receptors ([3H](+)-pentazocine receptor binding, whole-brain membrane preparation). The arrangement: species or system guinea pig. The settings on record: for Ki: Ki from Dixon plot; for inhibition at 1 µM: compound concentration 1 × 10^−6 mol/L; for inhibition at 1 µM / inhibition at 0.1 µM / inhibition at 0.01 µM / inhibition at 0.001 µM / inhibition at 0.0001 µM / inhibition at 10 pM: [3H](+)-pentazocine, 25° C., 60 minutes, read-out: Inhibition rate (%); for inhibition at 0.1 µM: compound concentration 1 × 10^−7 mol/L; for inhibition at 0.01 µM: compound concentration 1 × 10^−8 mol/L; for inhibition at 0.001 µM: compound concentration 1 × 10^−9 mol/L; for inhibition at 0.0001 µM: compound concentration 1 × 10^−10 mol/L; for inhibition at 10 pM: compound concentration 1 × 10^−11 mol/L; for IC50: from logit-log regression of the dose-response curve. The protocol:
The following measurement of radioactivity was performed according to a usual method after the binding reaction had been carried out at 25° C. for 60 minutes.
The inhibition rate was determined by the equation of “100−binding rate”. The binding rate is represented by the following equation:
The IC50 of the test substance was calculated from a regression equation to the dose-response curve. That is to say, the ratio y=(B−N)/(B0−N) wherein a value of (B−N) is a specific binding radioactivity in the presence of a test substance, and a value of (B0−N) is a specific binding radioactivity in the absence of a test substance was first subjected to logit conversion and applied to a logit-log model plotted against the common logarithm of the test substance concentration to create a dose-response curve. […] The regression equation to the dose-response curve used is as follows: […]
Then, for each concentration of the positive substances, the reaction rate was measured while changing the concentration of the test substance in a range including the IC50 to create the Dixon plot, and the Ki value was calculated from the test substance concentration giving an intersection of these straight lines.

Each structure is given as a SMILES string.

T1 sequence (Q60492 whole entry): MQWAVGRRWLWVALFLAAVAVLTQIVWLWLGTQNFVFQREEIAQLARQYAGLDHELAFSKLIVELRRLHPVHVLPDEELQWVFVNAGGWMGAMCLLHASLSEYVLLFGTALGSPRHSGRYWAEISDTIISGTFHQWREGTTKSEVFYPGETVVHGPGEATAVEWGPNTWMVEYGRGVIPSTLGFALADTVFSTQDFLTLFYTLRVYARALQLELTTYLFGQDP

A word on the Ki: it is the dissociation constant of the complex between target and ligand, obtained from inhibition or displacement. Higher therefore signals lower affinity. For `CCN(CCSc1ccccc1)C1CCCCC1` [Compound [2], N-(2-(phenylthio)ethyl)-N-ethylcyclohexylamine], the “Neurite outgrowth-promoting activity (%) (rate of neurite forming cells, longest neurite 60 μm or more)” value (shortened to “Neurite outgrowth-promoting activity (%)”) came to 37.4 ± 3.5% in assay [1] (0.3 μM) and 50.6 ± 1.4% in assay [1] (1.0 μM). For the same compound, in assay [2] (final concentration 1 μM), the “ratio of cells extending dendrites compared with no additives (FIG. 1)” value is given as “obviously higher than that of the case of no additives”. Also, the “ratio of cells having neurites having the length two or more times the cell body diameter (FIG. 2)” value in assay [2] (final concentrations 0.1 μM, 1 μM, 10 μM) is on record as “significantly increased”. The same compound showed a Ki on sigma receptor of 1 nM.

As usually defined, the inhibition is the relative decrease from the control value, in per cent. The term IC50 denotes the concentration that gives 50% inhibition. Lower therefore signals greater potency in that assay. With `c1ccc(SCCN2CCCC3CCCCC32)cc1` (stereo not shown) [Compound [3], N-(2-phenylthio)ethyldecahydroquinoline], the “Neurite outgrowth-promoting activity (%)” value in assay [1] (0.3 μM) was determined as 32.8 ± 5.3%. The “Neurite outgrowth-promoting activity (%)” value in assay [1] (1.0 μM) came out at 52.6 ± 1.2%. Also, on sigma receptor, the Ki is 1.6 nM, the inhibition at 1 µM is 99.9%, the inhibition at 0.1 µM was found to be 100% and the inhibition at 0.01 µM stood at 90.4%. Besides, at sigma receptor, the inhibition at 0.001 µM came to 46.8%, the inhibition at 0.0001 µM worked out at 6.31%, the inhibition at 10 pM stood at 2.84% and the IC50 was found to be 1.2 nM.

`CCN(CCSc1cccc(C(F)(F)F)c1)C1CCCCC1` [Compound [4], N-[2-(3-trifluoromethyl)phenylthio]ethyl-N-ethylcyclohexylamine]: the “Neurite outgrowth-promoting activity (%)” value in assay [1] (0.3 μM) was 21.4 ± 2.2%. The “Neurite outgrowth-promoting activity (%)” value in assay [1] (1.0 μM) is 39.4 ± 2.5%. On sigma receptor, the affinity corresponds to a Ki of 0.8 nM, the inhibition at 1 µM came to 100%, the inhibition at 0.1 µM turned out to be 100% and the inhibition at 0.01 µM was found to be 99.7%. Also, on sigma receptor, the inhibition at 0.001 µM was determined as 95.2%, the inhibition at 0.0001 µM came to 23.5%, the inhibition at 10 pM was determined as 10.4% and the IC50 was 0.189 nM.

As for `CCN(CCSc1cccc(C(F)F)c1)C1CCCCC1` [Compound [5], N-[2-(3-difluoromethyl)phenylthio]ethyl-N-ethylcyclohexylamine], the “Neurite outgrowth-promoting activity (%)” value in assay [1] (0.3 μM) was 41.6 ± 3.3%. Further, in assay [1] (1.0 μM), the “Neurite outgrowth-promoting activity (%)” value came out at 50.8 ± 2.8%. Besides, at sigma receptor, the inhibition at 1 µM is 97.5%, the inhibition at 0.1 µM was 99.2%, the inhibition at 0.01 µM stood at 98.6% and the inhibition at 0.001 µM came to 92.8%. On sigma receptor, the inhibition at 0.0001 µM is 20.8%, the inhibition at 10 pM is 1.25% and the IC50 turned out to be 0.222 nM.

As for `CCN(CCSc1ccc(OC)c(OC)c1)C1CCCCC1` [Compound [6], N-[2-(3,4-dimethoxy)phenylthio]ethyl-N-ethylcyclohexylamine], the “Neurite outgrowth-promoting activity (%)” value in assay [1] (1.0 μM) was 40.3 ± 3.4%. Moreover, on sigma receptor, the inhibition constant Ki is 3.7 nM, the inhibition at 1 µM came to 99.9%, the inhibition at 0.1 µM worked out at 99.1% and the inhibition at 0.01 µM was determined as 98.1%. Further, on sigma receptor, the inhibition at 0.001 µM was determined as 86.6%, the inhibition at 0.0001 µM is 19.9%, the inhibition at 10 pM came out at 1.75% and the IC50 was 0.268 nM.

Regarding `CCN(CCSc1ccc(F)cc1)C1CCCCC1` [Compound [7], N-[2-(4-fluorophenylthio)ethyl]-N-ethylcyclohexylamine], the “Neurite outgrowth-promoting activity (%)” value in assay [1] (0.3 μM) came out at 30.2 ± 2.5%. Moreover, the “Neurite outgrowth-promoting activity (%)” value in assay [1] (1.0 μM) turned out to be 53.3 ± 1.4%. For the same compound, on sigma receptor, the Ki is 0.8 nM, the inhibition at 1 µM was found to be 97.3%, the inhibition at 0.1 µM worked out at 96.3% and the inhibition at 0.01 µM is 90%. Besides, on sigma receptor, the inhibition at 0.001 µM stood at 44.5%, the inhibition at 0.0001 µM was 3.43%, the inhibition at 10 pM stood at 0% and the IC50 is 1.23 nM.

Regarding `CCN(CCCc1ccccc1)C1CCCCC1` [Compound [8], N-(3-phenylpropyl)-N-ethylcyclohexylamine], the figures for the “Neurite outgrowth-promoting activity (%)” value in assay [1] (0.3 μM) and in assay [1] (1.0 μM) were 59.9 ± 1.8% and 61.7 ± 2.0%, respectively. On sigma receptor, this compound displayed a Ki of 8.7 nM.

With `CCN(CCCc1ccc(OC)cc1)C1CCCCC1` [Compound [9], N-[3-(4-methoxyphenyl)propyl]-N-ethylcyclohexylamine], the entries for the “Neurite outgrowth-promoting activity (%)” value in assay [1] (0.3 μM) and in assay [1] (1.0 μM) were 31.4 ± 5.8% and 59.6 ± 1.0%, respectively. On sigma receptor, this compound displayed a Ki of 10.5 nM.

As for `CCN(CCCc1ccc(F)cc1)C1CCCCC1` [Compound [10], N-[3-(4-fluorophenyl)propyl]-N-ethylcyclohexylamine], the entries for the “Neurite outgrowth-promoting activity (%)” value in assay [1] (0.3 μM) and in assay [1] (1.0 μM) were 26.8 ± 1.1% and 57.0 ± 3.0%, respectively. The compound also yielded a Ki on sigma receptor of 8.5 nM.

For the compound `CCN(CCOc1ccc(F)cc1)C1CCCCC1` [Compound [11], N-ethyl-N-[2-(4-fluorophenoxy)ethyl]cyclohexylamine], the “Neurite outgrowth-promoting activity (%)” value in assay [1] (0.3 μM) is 43.5 ± 2.4%; in assay [1] (1.0 μM), 50.7 ± 2.2%. The compound also registered a Ki at sigma receptor of 2.4 nM.

As for `CCN(CCOc1ccccc1)C1CCCCC1` [Compound [12], N-ethyl-N-(2-phenoxyethyl)cyclohexylamine], the “Neurite outgrowth-promoting activity (%)” value in assay [1] (0.3 μM) is 44.2 ± 1.4%; in assay [1] (1.0 μM), 32.2 ± 1.0%. On sigma receptor, this compound had a Ki of 6.6 nM.

For the compound `COc1ccc(CCN2CCN(CCCc3ccccc3)CC2)cc1OC` [Reference compound, SA4503, reference compound], the entries for the “Neurite outgrowth-promoting activity (%)” value in assay [1] (0.3 μM) and in assay [1] (1.0 μM) were 44.6 ± 2.2% and 58.4 ± 1.8%, respectively.
